Results: PubChem BioAssay (NCI)
Several values for one entry are separate records, joined by “and”; a condition that tells them apart may be missing. Identical values can stand only once.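 Each compound was tested at five concentrations against cells in 96-well plates for 48 hours. GI50 = concentration required for 50% inhibition of growth. At the TGI there is no net growth.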

Key:
Assay in all cases: inhibition of tumour cell growth, NCI panel, 48 h
CAKI-1 renal = test system: CAKI-1 renal
K-562 leukemia = test system: K-562 leukemia
M14 melanoma = test system: M14 melanoma
MALME-3M melanoma = test system: MALME-3M melanoma
NCI-H226 lung = test system: NCI-H226 lung
NCI-H522 lung = test system: NCI-H522 lung
NCI/ADR-RES ovarian = test system: NCI/ADR-RES ovarian
SF-539 CNS = test system: SF-539 CNS
SK-MEL-2 melanoma = test system: SK-MEL-2 melanoma
UACC-257 melanoma = test system: UACC-257 melanoma

SMILES	GI50 (CAKI-1 renal) [µM]	TGI (CAKI-1 renal)	GI50 (K-562 leukemia) [µM]	TGI (K-562 leukemia)	GI50 (M14 melanoma) [µM]	TGI (M14 melanoma)	GI50 (MALME-3M melanoma)	TGI (MALME-3M melanoma) [µM]	GI50 (NCI-H226 lung)	TGI (NCI-H226 lung)	GI50 (NCI-H522 lung) [µM]	TGI (NCI-H522 lung) [µM]	GI50 (NCI/ADR-RES ovarian)	TGI (NCI/ADR-RES ovarian)	GI50 (SF-539 CNS)	TGI (SF-539 CNS)	GI50 (SK-MEL-2 melanoma)	TGI (SK-MEL-2 melanoma)	GI50 (UACC-257 melanoma)	TGI (UACC-257 melanoma)
O=C(Nc1cccc([N+](=O)[O-])c1)c1ccc2ccccc2c1O	2.48	> 38.4 µM	2.79	> 100 µM	6.81	> 100 µM	1.58 µM	6.28	7.57 µM	> 100 µM	1.89	6.96	5.62 µM	> 86.5 µM	4.63 µM	> 64.8 µM	3.18 µM	16.1 µM	2.42 µM	7.34 µM
NC(N)=N/N=C(/c1ccccc1)c1ccc(Cl)cc1	13.9	> 100 µM	2.95	> 100 µM	12	78.4 µM	53.3 µM	> 100	29.3 µM	> 100 µM	12.5	71.1	24.4 µM	85.9 µM	18.8 µM	53.5 µM	> 100 µM	> 100 µM	> 100 µM	> 100 µM
Nc1nc(Cl)c(N=Nc2ccc(Cl)cc2)c(NCC2(CO)CC(OCc3ccccc3)C2)n1 (stereo unspecified)	0.768	3.68 µM and 14.2 µM and 5.52 µM	2.76	10.3 µM and > 100 µM		> 100 µM and 18.7 µM	17.9 µM and 10.1 µM	33.3	6.92 µM and 18.9 µM and 6.68 µM	28.9 µM and > 100 µM and 24.9 µM	2.09	4.26	6.55 µM and 9.08 µM and 3.98 µM	77.8 µM and > 100 µM and 16.2 µM	13.7 µM and > 100 µM and 12.4 µM	43.7 µM and > 100 µM and 33.1 µM	17.3 µM and > 31.3 µM and 13.6 µM	61.4 µM and > 100 µM and 28 µM	32.5 µM and > 95.4 µM and 15.6 µM	> 100 µM and 46 µM
O=C1c2cccc3cccc(c23)C(=O)N1CCCCN1CCN(CCCCOc2ccc(-c3nc4ccc(N5CCOCC5)cc4[nH]3)cc2)CC1	> 100	> 100 µM	4.35	> 100 µM	> 100	> 100 µM	29.5 µM	> 100	> 100 µM	> 100 µM	> 100	> 100	> 100 µM	> 100 µM	> 100 µM	> 100 µM	> 100 µM	> 100 µM	15 µM	> 100 µM
Cn1ccnc1C(=O)/C=C/c1ccc(C(=O)Nc2ccccc2O)cc1	1.65	4.03 µM	0.939	34 µM	1.82	4.28 µM	1.63 µM	3.81	2.35 µM	7.8 µM	1.86	5.47	2.86 µM	22.6 µM	1.56 µM	3.5 µM	5.9 µM	21.8 µM	2.51 µM	13.3 µM
COc1cc(/C=C/C(=O)C(C(=O)/C=C/c2ccc(OC(=O)CCNc3nnc(C)s3)c(OC)c2)C(=O)CCNc2nnc(C)s2)ccc1OC(=O)CCNc1nnc(C)s1	2.86	> 34.2 µM	2.23	8.01 µM	3.11	11 µM	2.72 µM	6.51	2.64 µM	8.12 µM	2.49	7.79	3.87 µM	> 38.8 µM	2.43 µM	6.03 µM	2.85 µM	12.5 µM	2.64 µM	8.31 µM
Cc1ccc(NSc2ccccc2[N+](=O)[O-])cc1	1.36	25.3 µM	0.125	22.9 µM	0.146	15.3 µM	3.21 µM	28.9	4.04 µM	20.8 µM	0.435	13.4	0.148 µM	14.3 µM	0.847 µM	5.11 µM	1.17 µM	21.9 µM	17.4 µM	36.7 µM
O[C@@H]1CCCN1Cc1cc2cc3c(cc2c2cc(OCc4ccccc4)ccc12)OCO3	3.42	12.6 µM	2.71	8.83 µM	1.81	3.35 µM	2.37 µM	5.44	15.7 µM	37.7 µM	6.08	21.5	6.12 µM	21.7 µM	3.19 µM	10.4 µM	2.23 µM	4.79 µM	2.17 µM	4.37 µM
COc1cc(Nc2ncc3c(C)nc(-c4cccc(Oc5ccccc5)c4)n3n2)cc(OC)c1OC	1.24	> 25 µM	10	> 25 µM	3.54	19 µM	5.32 µM	18.7	5.93 µM	> 25 µM	4.94	> 17.9	6.36 µM	> 25 µM	7.07 µM	> 25 µM	2.58 µM	9.71 µM	10.4 µM	> 25 µM
CO/N=C(\COc1ccc2c(c1)oc(=O)c1cc(OC)ccc12)c1ccc(F)cc1	19.1	55 µM	23.9	58.7 µM	17.8	45.7 µM	26.7 µM	84.6	38.1 µM	> 100 µM	13	32.5	17.6 µM	35.6 µM	23.5 µM	63 µM	23.1 µM	72.8 µM	45.5 µM	> 100 µM
CNc1cccnc1/C=N/NC(N)=S		> 10 µM		> 10 µM		3.94 µM		> 10		> 10 µM		> 10		9.94 µM		1.54 µM		> 10 µM		> 10 µM
CC(C)(C)c1cn2cccc(C(=O)N3CCN(CC(=O)Nc4ccc(Cl)cc4C(=O)c4ccccc4Cl)CC3)c2n1	3.31	14.2 µM	> 100	> 100 µM	15.4	33.2 µM	19.9 µM	38.8	11.3 µM	37 µM	12.7	52.3	6.7 µM	> 100 µM	10 µM	22.3 µM	5 µM	33.6 µM	3.51 µM	23.5 µM
CC(C)=CC(O)C/C(C)=C/CC/C(C)=C/CCC1(C)C(CCCO)/C(=C(/C)C=O)CCC1(C)O (stereo unspecified)		> 100 µM		7.94 µM		60.9 µM		> 100		> 100 µM		> 100		> 100 µM		52 µM		> 100 µM		> 100 µM
O=C(Nc1cccnc1)c1cccc([N+](=O)[O-])c1	> 100	> 100 µM	> 100	> 100 µM	> 100	> 100 µM	> 100 µM	> 100	> 100 µM	> 100 µM	> 100	> 100	> 100 µM	> 100 µM	> 100 µM	> 100 µM	> 100 µM	> 100 µM	> 100 µM	> 100 µM
Cc1ccc(/C=C/C(=O)c2ccc(N)cc2)c(C)c1	1.72	3.18 µM	2.03	4.84 µM	2.45	7.52 µM	1.87 µM	3.57	2.8 µM	7.25 µM	0.379	1.67	6.65 µM	> 100 µM	2.39 µM	5.45 µM	14 µM	28.4 µM	14.3 µM	28.3 µM
O=c1oc2ccc(F)cc2c(=O)n1-c1ccc(Cl)cc1F	0.36	3.41 µM	0.509	> 100 µM	0.594	4.55 µM	0.403 µM	2.51	1.22 µM	4.91 µM	0.363	4.5	1.18 µM	9.31 µM	0.564 µM	6.79 µM	0.42 µM	2.53 µM	0.66 µM	4.54 µM
C/C1=C\CC[C@@]2(C)O[C@@H]2C[C@@H]2[C@H](C/C(C)=C/CC1)OC(=O)C21CCN=N1 (stereo partly specified)	> 100	> 100 µM	71.2	42.7 µM and > 100 µM	> 100	> 100 µM		> 75		> 100 µM		75	> 100 µM	> 100 µM	> 100 µM	> 100 µM	> 100 µM	> 100 µM	> 100 µM	> 100 µM
COc1cc(C(=O)N2CCN(c3ccccc3OC)CC2)c(N)cc1OCc1ccccc1	37.9	> 100 µM	27.2	> 100 µM	39.3	> 100 µM	22.3 µM	55.6	38.3 µM	> 100 µM	25.9	80.6	33.5 µM	> 100 µM	45.3 µM	> 100 µM	28.2 µM	66.8 µM	39 µM	> 100 µM
C=C(C)[C@@H]1CC[C@]2(C(=O)O)CC[C@]3(C)[C@H](CC[C@@H]4[C@@]5(C)C[C@@H](CC#Cc6ccc(Br)cc6)C(=O)C(C)(C)[C@@H]5CC[C@]43C)[C@@H]12	15.6	> 100 µM	15.6	> 100 µM	2.67	12.2 µM	3.48 µM	14.1	24.2 µM	> 100 µM	2.95	75	62.6 µM	> 100 µM	22.5 µM	> 100 µM	2.58 µM	9.48 µM	> 100 µM	> 100 µM
